Assay results from PubChem BioAssay (NCI).
Values joined by “and” are separate entries in the source; they are usually repeats but may differ in a detail not shown here. Equal values may be shown once.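 Test compounds were applied to cells in 96-well plates for 48 hours at 5 doses. Here, GI50 denotes the concentration required for 50% inhibition of growth. TGI is the concentration that stops growth completely.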

Legend:
Experiment in all cases: NCI-60 cell line screen, 48 h
COLO 205 colon = system: COLO 205 colon
HCT-116 colon = system: HCT-116 colon
HS 578T breast = system: HS 578T breast
LOX IMVI melanoma = system: LOX IMVI melanoma
MCF7 breast = system: MCF7 breast
MDA-MB-231 breast = system: MDA-MB-231 breast
SF-539 CNS = system: SF-539 CNS
SK-MEL-5 melanoma = system: SK-MEL-5 melanoma
SNB-19 CNS = system: SNB-19 CNS
UACC-62 melanoma = system: UACC-62 melanoma

Structure (SMILES) | GI50 (COLO 205 colon) | TGI (COLO 205 colon) | GI50 (HCT-116 colon) | TGI (HCT-116 colon) | GI50 (HS 578T breast) | TGI (HS 578T breast) | GI50 (LOX IMVI melanoma) | TGI (LOX IMVI melanoma) | GI50 (MCF7 breast) | TGI (MCF7 breast) | GI50 (MDA-MB-231 breast) | TGI (MDA-MB-231 breast) | GI50 (SF-539 CNS) | TGI (SF-539 CNS) | GI50 (SK-MEL-5 melanoma) | TGI (SK-MEL-5 melanoma) | GI50 (SNB-19 CNS) | TGI (SNB-19 CNS) | GI50 (UACC-62 melanoma) | TGI (UACC-62 melanoma)
C[C@@H](Oc1cc(-c2cnn(C3CCNCC3)c2)cnc1N)c1c(Cl)ccc(F)c1Cl | 420 nM | 1.57 µM | 619 nM | 4.77 µM | 966 nM | 6.25 µM | 1170 nM | 2.64 µM | 457 nM | 2.43 µM | 1170 nM | 6.5 µM | 1800 nM | 3.5 µM | 1470 nM | 2.84 µM | 2.24 µM | > 10 µM | 1540 nM | 4.66 µM
O=C1c2cccnc2-c2nc(-c3ccccn3)cc3c2c1nc1ccccc13 | 804 nM | 3.35 µM | 88.5 nM | 0.332 µM | 705 nM | 4.65 µM | 287 nM | 1.52 µM | 463 nM | 2.22 µM | 185 nM | 0.5 µM | 92.6 nM | 0.295 µM | 265 nM | 1.65 µM | 1.13 µM | 2.65 µM | 191 nM | 0.63 µM
c1ccc(Oc2c3ccccc3nc3ccccc23)cc1 | 2610 nM | 6.07 µM | 714 nM | 3.13 µM | 6990 nM | > 100 µM | 1730 nM | 11.8 µM | 2480 nM | 17.5 µM | 3080 nM | 9.82 µM | 2000 nM | 5.22 µM | 3500 nM | 11.7 µM | 5.35 µM | 18 µM | 4970 nM | 16.9 µM
Cc1c2ncccc2c(C)c2c1[nH]c1ccc(O)cc12 | 23100 nM | 24.3 µM and 111 µM | 2910 nM and 6580 nM | 11 µM and 64.6 µM | 7840 nM | 21.2 µM and 84.8 µM | 2390 nM | 6.61 µM | 5950 nM and 8580 nM | 15.2 µM and 50 µM | 7260 nM | 19.2 µM and 54.4 µM | 4850 nM | 20.8 µM | 3950 nM | 20.4 µM and 15 µM | 19.7 µM | 20.2 µM and 84.3 µM | 7920 nM | 27.1 µM and 21.1 µM
Cc1ccc2c(/C=C/C(=O)c3cc(CN4CCOCC4)c(O)c4nc(C)ccc34)cc(CN3CCOCC3)c(O)c2n1 | 1820 nM | 4.49 µM | 412 nM | 3.41 µM | 1280 nM | > 100 µM | 454 nM | 1.79 µM | 356 nM | 2.74 µM | 1440 nM | 5.2 µM | 459 nM | 2.02 µM | 581 nM | 2.32 µM | 0.603 µM | 17.6 µM | 432 nM | 7.48 µM
CC(C)(C)[Si](C)(C)OC1[C@@H](O[Si](C)(C)C(C)(C)C)[C@@H](CNC(=O)NC(=O)NC(=O)CI)O[C@H]1n1cnc2c(NC(=O)Nc3ccccc3)ncnc21 (stereo not given in full) | 6110 nM | 13.2 µM | 2820 nM | 9.08 µM | 2500 nM | 17.8 µM | 86.4 nM | 0.155 µM | 6100 nM | 17.4 µM | 251 nM | 0.995 µM | 441 nM | 1.16 µM | 8730 nM | 16.3 µM | 12.5 µM | 38.2 µM | 8630 nM | 22.6 µM
OCc1ccc(N(Cc2ccc(F)cc2)C2CCC2)cc1Cl | 3500 nM | 11.5 µM | 115 nM | 3.73 µM | 19000 nM | 45.4 µM | 15100 nM | 29.3 µM | 178 nM | 10.9 µM | 14900 nM | 28.6 µM | 16700 nM | 31.3 µM | 9110 nM | 21.8 µM | 13.8 µM | 27.5 µM | 124 nM | 0.846 µM
CC1/C=C/C=C/CC/C=C/C=C/C=C/C=C/C(OC2OC(C)C(O)C(N)C2O)CC2OC(CC(O)C(O)CCC(O)CC(O)CC(O)CC(=O)OC(C)C(C)C1O)CC(O)C2C(=O)O (stereo not given) | 81.7 µg/mL | 56.8 µM and 150 µg/mL | 37.7 µg/mL | 32.1 µM and 112 µg/mL | 32.5 µg/mL | 55.1 µM and 66.9 µg/mL | 24.1 µg/mL | 33.1 µM and 47.9 µg/mL | 128 µg/mL | 36.4 µM and 150 µg/mL | 29.4 µg/mL | 39.4 µM and 69.2 µg/mL | 28 µg/mL | 32.3 µM and 64.1 µg/mL | 47.3 µg/mL | 58.9 µM and 150 µg/mL | 94.5 µg/mL | 34 µM and 150 µg/mL | 28.8 µg/mL | 38 µM and 55.8 µg/mL
COC(=O)C/C(C)=C/[C@@H](O)[C@H]1O[C@@H]2CC/C(Cl)=C/C/C=C(/C)[C@H](OC(C)=O)CC(=O)O[C@@H]1C2 | 1720 nM | 7.51 µM | 3220 nM | 7.85 µM | 546 nM | 2.14 µM | 1970 nM | 11.2 µM | 4860 nM | 15.7 µM | 4070 nM | 11.8 µM | 1320 nM | 7.95 µM | 875 nM | 3.42 µM | 2.28 µM | 12.7 µM | 694 nM | 1.67 µM
